{"source": "patent US8940333B2", "about": "“Amphiphilic block copolymers and nanoparticles comprising the same” (priority 2005, dated 2015)", "key": {"erythrocyte": {"test_system": "erythrocyte", "test": "Hemolysis test (ASTM F756)", "format": "cell-based"}, "[1]": {"test_system": "macrophage culture (RAW 264.7)", "test": "In vitro stealth test: reactive oxygen species (DCFDA to DCF) in macrophage culture, flow cytometer", "format": "cell-based", "settings": "RAW 264.7, 1 μm PMA, 24-hour activation (positive control)"}}}
{"smiles": "CC[C@@]1(O)C(=O)OCc2c1cc1n(c2=O)Cc2cc3ccccc3nc2-1", "note": "[Camptothecin]", "values": [{"measurement": "Hemolytic grade", "setting": "erythrocyte", "result": "slight hemolysis"}, {"measurement": "Hemolytic index (%)", "setting": "erythrocyte", "result": 5.84, "unit": "%"}]}
{"smiles": "CCCCCCCCCCCCCC(=O)O[C@@H]1[C@@H](C)[C@@]2(O)[C@@H](C=C(CO)C[C@]3(O)C(=O)C(C)=C[C@@H]23)[C@@H]2C(C)(C)[C@]12OC(C)=O", "note": "[PMA]", "values": [{"measurement": "mean fluorescent intensity of DCF", "setting": "[1]", "result": 20.13}]}
